Patent publication US8975086B2, “Method for treating or preventing bladder cancer using the DEPDC1 polypeptide” (OncoTherapy Science, Inc., priority 2008, dated 2015)

What was measured:
[1] = tested on: NF-kappaB (p65); test: Immunocytochemical staining of nuclear NF-kappaB (p65) in UM-UC-3 cells; assay type: cell-based, human; details: UM-UC-3 cells treated with peptide for 12 hours
Description: For detection of NF-kappaB expression in the nucleus after treatment with dominant-negative peptide (see “Dominant-negative peptide section”), UM-UC-3 cells (1×10^5) were seeded and then treated with each peptide for 12 hours. Subsequently, immunocytochemical staining was performed using anti-NF-kappaB (p65) monoclonal antibody (diluted at 1:200) (Santa Cruz, Calif., USA). Fluorescent images and nuclear intensity of NF-kappaB (p65) protein were obtained under a TCS SP2 AOBS microscope (Leica, Tokyo, Japan). For the image analysis, the nuclear signal intensities of NF-kappaB (p65) were measured by observing nuclei of 50 cells treated with the 11R-DEP611-628 peptide or scramble peptide (see “Dominant-negative peptide section”). Assays were performed in triplicate independently.

[2] = biological target: T1, DEPDC1-ZNF224 complex (Homo sapiens, UniProt Q9NZL3, H562R/M118V); test: Immunoprecipitation of exogenous DEPDC1-HA and ZNF224-FLAG complex in peptide-treated COS7 cells; assay type: cell-based
T1 construct: expressed in transfected cells; host or cells: COS7 cells, transiently co-transfected (pCAGGS-type vectors)
T1 sequence (Q9NZL3 whole entry M118V/H562R, one chain of several): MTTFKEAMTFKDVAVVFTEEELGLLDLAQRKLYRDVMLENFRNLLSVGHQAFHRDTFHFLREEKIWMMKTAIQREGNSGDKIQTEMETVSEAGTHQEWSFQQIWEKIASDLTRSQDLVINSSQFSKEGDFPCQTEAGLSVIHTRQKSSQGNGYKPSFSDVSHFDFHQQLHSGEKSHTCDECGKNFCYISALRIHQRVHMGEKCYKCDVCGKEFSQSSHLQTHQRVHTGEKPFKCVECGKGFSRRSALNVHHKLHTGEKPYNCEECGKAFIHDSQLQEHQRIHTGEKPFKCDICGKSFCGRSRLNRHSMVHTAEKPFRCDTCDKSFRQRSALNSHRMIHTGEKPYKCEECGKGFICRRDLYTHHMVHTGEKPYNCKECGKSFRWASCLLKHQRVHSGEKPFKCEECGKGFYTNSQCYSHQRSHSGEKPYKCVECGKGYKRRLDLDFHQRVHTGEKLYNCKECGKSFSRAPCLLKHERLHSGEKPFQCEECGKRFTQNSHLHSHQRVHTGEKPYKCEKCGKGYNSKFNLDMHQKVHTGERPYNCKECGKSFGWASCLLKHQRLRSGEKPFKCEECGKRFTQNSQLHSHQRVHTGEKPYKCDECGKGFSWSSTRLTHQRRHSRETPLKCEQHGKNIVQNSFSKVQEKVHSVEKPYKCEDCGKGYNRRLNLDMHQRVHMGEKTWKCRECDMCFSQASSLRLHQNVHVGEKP
Description: To confirm the interaction between DEPDC1 and ZNF224 in bladder cancer cells and identify the ZNF224-binding region in DEPDC1, the immunoprecipitation experiment was carried out as follows. First, it was confirmed interaction between endogenous DEPDC1 and exogenous ZNF224 by immunoprecipitation experiments using anti-DEPDC1 polyclonal antibody for immunoprecipitation and anti-FLAGM2 antibody (Amersham) for immunoblotting. To further determine the ZNF224-binding region in DEPDC1, it was cloned six partial constructs of DEPDC1 (DEPDC11-147, DEPDC1141-300, DEPDC1177-597, DEPDC1300-669, DEPDC1587-740 and DEPDC1654-811) into appropriate sites of COOH-terminal HA-tagged pCAGGS vector. The nucleotide sequence of each clones were determined with an ABI Prism 3700 DNA sequencer (Applied Biosystems, Foster City, Calif.), using each primer. Cell extracts from Cos7 cell line, transfected with each of plasmids expressing one of these six partial segments of DEPDC1, were precleared by incubation at 4 degrees C. for 1 hour with 100 micro 1 of protein G-agarose beads in final volumes of 2 mL of immunoprecipitation buffer (0.5% NP40, 50 mmol/L Tris-HCl, 150 mmol/L NaCl) in the presence of proteinase inhibitor. After centrifugation at 1,000 rpm for 5 minutes at 4 degrees C., the supernatants were incubated at 4 degrees C. with anti-HA rat for 1 hours. After the beads were collected from each sample by centrifugation at 5,000 rpm for 2 minutes and washed six times with 1 mL of immunoprecipitation buffer, the washed beads were re-suspended in 50 uL of Laemmli sample buffer and boiled for 3 minutes before the proteins were separated on 10% SDS-PAGE gels. Immunoblot was done using anti-HA rat antibody and anti-FLAGM2 monoclonal antibody, respectively (Sigma-Aldrich Co., St. Louis, Mo.).
To examine the effect of these polyarginine (11R)-linked peptides on inhibition of the DEPDC1-ZNF224 complex formation, they were co-transfected with DEPDC1 and ZNF224 constructs into COS7 cells. […] Immunoprecipitation were performed according to methods as described in “Identification of the ZNF224-binding regions in DEPDC1 protein” section.

[3] = tested on: DLG1; test: Quantitative RT-PCR of downstream gene DLG1 in UM-UC-3 cells; assay type: cell-based, human; details: bladder cancer cells after peptide treatment
Description: UM-UC-3 cells were transfected with siRNA against DEPDC1 (si-DEPDC1), ZNF224 (si-ZNF224-2) or EGFP (control siRNA). The target sequences of the synthetic oligo-duplex for siRNA against DEPDC1 (Sigma Aldrich) were as follows: si-DEPDC1,5′-CCAAAGUUCCGUAGUCUAA-3′(SEQ ID NO: 75), ZNF224 (si-ZNF224-2) or EGFP as described in “RNA interference assay” section.
Total RNAs were extracted from each sample at 12 hours and 24 hours after the transfection, labeled with Cy5 (for si-DEPDC1- and si-ZNF224-2-transfected cells) or Cy3 (for si-EGFP-transfected cells), and subjected to cohybridization onto cDNA microarrayslides containing 36468 cDNA or ESTs as described previously (Takata R, et al., Clin Cancer Res 2005 11:2625-36). After normalization of the data, it was excluded genes from further analysis when Cy5 and Cy3 dyes yielded signals intensities lower than the cut-off value. For other genes, the Cy5/Cy3 ratio was calculated using the raw data of each samples. […] Validation of candidate downstream genes of both DEPDC1 and ZNF224 was carried out with quantitative RT-PCR analysis using the SYBR green dye (Rhoche) and the same amplified RNAs from UM-UC-3 cells used for cDNA microarray experiments, with each gene-specific primer as follows;
All experiments were performed in duplicate. The calculated quantity of the target gene for each sample was then divided by the average calculated quantity of beta 2-microglobulin (beta 2-MG) corresponding to each sample to give a relative expression of the target gene for each sample

[4] = tested on: UM-UC-3 cells; test: MTT assay of cell viability of UM-UC-3 bladder cancer cells treated with 11R peptides; assay type: cell-based, human
Description: UM-UC-3 and normal human dermal fibroblast-derived NHDF-Ad cell lines were incubated with the 11R peptides at the concentration of 0, 1, 2, or 3 micromol/L for 5 days. Each peptide was added at every 24 hours at the appropriate concentrations and the viability of cells was evaluated by MTT assay at every day after the treatment.
To examine the effect of DEPDC1611-628 peptide on cell growth of UM-UC-3 and NHDF cells, the cells were incubated with the DEPDC1611-628 or scramble peptides at the concentration of 0, 1, 2, or 3 micro M for 5 days, respectively. Each peptide was added at every 24 hours at the appropriate concentrations and the viability of cells was evaluated by MTT assay every day. Absorbance at 570 nm wavelength was measured with a Microplate Reader 550 (Bio-Rad). These experiments were performed in triplicate.

## RRRRRRRRRRR-GGG-LRMSRLSPNMIMQRPKRL (RRRRRRRRRRRGGGLRMSRLSPNMIMQRPKRL; An artificially synthesised dominant negative peptide) [scramble611-628]
[1]
  nuclear-staining of NF-kappa B (p65) protein: no effect
[2]; four peptides at 3 micro M added 6 hours after transfection, twenty-four hours later
  complex formation of DEPDC1-HA and ZNF224-FLAG (immunoprecipitation): no effect
[2]; six peptides added 6 hours after transfection, immunoprecipitation fifteen hours later
  complex formation between exogenously expressed DEPDC1-HA and ZNF224-Flag (immunoprecipitation): not inhibit
[3]
  expression of DLG1 (quantitative RT-PCR): not
[4]; UM-UC-3 cells, peptide 1, 2 or 3 micro M added every 24 hours for 5 days
  cell viability measured by MTT assay: no effect
[4]; cells treated with peptide, FIG. 5D
  cell growth or cellular morphology: no alterations in cell growth or cellular morphology
